Test results reported in ChEMBL document CHEMBL2203230, “Compounds from the heartwood of Caesalpinia sappan and their anti-inflammatory activity” (Bioorg Med Chem Lett, 2012).

Legend:
RAW264.7 [1] = assay: Antiinflammatory activity in mouse RAW264.7 cells assessed as inhibition of LPS-induced NO production after 24 hrs by Griess method; type: functional, cell-based; conditions: RAW264.7, 24 h
RAW264.7 [2] = assay: Antiinflammatory activity in mouse RAW264.7 cells assessed as reduction in LPS-induced iNOS expression incubated for 30 mins prior to LPS-challenge measured after 18 hrs; type: functional, cell-based

| Compound | IC50 (RAW264.7 [1]) [µM] | Activity (RAW264.7 [2]) |
| --- | --- | --- |
| COc1cc(C[C@@]23COc4cc(O)ccc4[C@@H]2OC(C)(C)O3)ccc1O | > 50 |  |
| COc1cc(C[C@@]2(O)COc3cc(O)ccc3[C@@H]2OC)ccc1O [CAESALPINIAPHENOL F] | > 50 |  |
| COc1cc(O)ccc1C(=O)/C=C/c1ccc(O)cc1 | 8.1 | Dose-dependent effect |
| CC1(C)O[C@H]2c3ccc(O)cc3OC[C@@]2(Cc2ccc(O)cc2)O1 | > 50 |  |
| Oc1ccc2c(c1)OC[C@]1(O)Cc3c(ccc(O)c3O)[C@H]21 [CAESALPINIAPHENOL E] | > 50 |  |
| Oc1ccc2c(c1)OC[C@]1(O)Cc3cc(O)c(O)cc3[C@H]21 [BRAZILIN] | 43.5 |  |
| COc1cc2c(cc1O)C[C@@]1(O)COc3cc(O)ccc3[C@@H]21 | > 50 |  |

Now from value to compound, other results behind:

| IC50 (RAW264.7 [1]) [µM] | Compound | Activity (RAW264.7 [2]) |
| --- | --- | --- |
| > 50 | COC1(OC)COc2cc(O)ccc2-c2cc(O)c(O)cc2C1 [PROTOSAPPANINADIMETHYLACETAL] |  |
| > 50 | O=C(c1ccc(O)cc1O)[C@@H](O)Cc1ccc(O)cc1 |  |
| 36.7 | Oc1ccc2c(c1)OC[C@@H]1Cc3cc(O)c(O)cc3[C@H]21 [BRAZILANE] |  |
| > 50 | COc1cc2c(cc1O)[C@@H]1c3ccc(O)cc3OC[C@]1(O)C2 |  |
| > 50 | CO[C@H]1[C@]2(O)COC3=CC(=O)C=C[C@@]31c1cc(O)c(O)cc1C2 [CAESALPINJ] |  |
